From paper PMC10107299, “Neutralizing the Impact of the Virulence Factor LecA from Pseudomonas aeruginosa on Human Cells with New Glycomimetic Inhibitors” (Angewandte Chemie (International Ed. in English), 2023) come the findings set out here.

The half-life is the time in which the quantity being followed falls by half. The term AUC denotes concentration integrated over time. As usually defined, the clearance is the rate of elimination divided by the concentration. High values mean a high capacity for elimination, low ones a low capacity for elimination. By Vd is commonly meant the apparent volume that relates the amount in the body to the concentration in plasma or blood.

The data set is described as follows: In vivo pharmacokinetic study in rats. Also noted: species or system Sprague-Dawley rats. As for the experimental part:
Encouraged by these promising in vitro results, an in vivo pharmacokinetic study was conducted for H2 and L2 in mice (1 mg kg^−1, i. v.) and in rats for L2 (10 mg kg^−1, i. v.). Compound concentrations were monitored in plasma and urine (Figure 6). H2 and L2 were cleared from mouse plasma within 1 h. Both compounds rapidly reached high concentrations in urine, several orders of magnitude above their respective in vitro LecA binding affinity. In fact, concentrations above the K ds were detected over the entire observation period of 5 h. […] In rats, higher amounts of L2 were detected both in plasma and urine, not solely corresponding to the 10‐fold increased dose. […] Importantly, high levels of L2 were present in rat urine even 24 h after administration. […]
Pharmacokinetic studies in rat
The in vivo part of the study was performed by the CRO Pharmacelsus (Saarbrücken, Germany). For rat in vivo pharmacokinetic studies, male Sprague-Dawley rats (Janvier-Labs, France) with 350 g - 400 g body weight were used. All experimental procedures were approved by and conducted in accordance with the regulations of the local Animal Welfare authorities (Landesamt für Gesundheit und Verbraucherschutz, Abteilung Lebensmittel- und Veterinärwesen, Saarbrücken) and any clinical signs of toxicity and any changes in behavior of the animals were recorded. Food and water were provided ad libitum throughout the study. Rats were provided with a catheter in the jugular vein 2 - 3 days prior to drug administration and blood sampling. According to national animal welfare guidelines, rats were treated once with Carprofen (5 mg/kg) directly after catheterization. Catheter was rinsed daily with K3EDTA. L2 was dissolved in PBS (pH 7.4) and administered i.v. in individual PK studies (N = 3) at 10 mg/kg in a volume of 2 mL/kg. At t = 0 h, rats were placed into metabolic cages for drug administration and immediate collection of urine and faeces samples. Further excretion products were collected during 0 - 2 h, 2 - 4 h, 4 - 8 h and 8 - 24 h. Excreta sample volumes were determined and immediately stored at -80 °C until analysis by LC-MS. 80 µL K3EDTA-treated blood was collected at t = 0.083 h, 0.25 h, 0.5 h, 1 h, 2 h, 4 h, 6 h, 8 h and 24 h post dose and samples were stored on ice until centrifugation (10 minutes at 4500 x g, 4 °C). Plasma was prepared within 45 min after collection, frozen and stored at -80 °C until analysis by LC-MS. […]
clinical signs observed after dosing.
Bioanalysis of pharmacokinetic samples from mice and from rat
First, a calibration curve was prepared by spiking different concentrations of L2 and H2 into mouse plasma, rat plasma or mouse urine (matrix for mouse and rat PK samples) from CD-1 mice. Glipizide was used as an internal standard. In addition, quality control samples (QCs) were prepared for L2 and H2 in plasma and urine. The following extraction procedures were used: 7.5 µl of a plasma sample or 15 µl of a urine sample (calibration samples, QCs or PK samples) was extracted with 35 µl of methanol containing 12.5 ng/ml of glipizide as internal standard for 15 min at 2000 rpm on an Eppendorf MixMate vortex mixer. Then samples were spun down at 15870 x g for 10 min. Supernatants were transferred to standard HPLC-glass vials. Samples from the mouse PK study with H2 in mice and from the rat PK study with L2 were analyzed via HPLC-MS/MS as described in the HPLC-MS analysis section above. PK samples from the mouse PK study with L2 were analyzed using an Agilent 1290 Infinity II HPLC system coupled to an AB Sciex QTrap 7500 mass spectrometer. LC conditions were the same as for the analysis of the samples from the mouse PK study with H2 and from the rat PK study with L2. Mass transitions for controls and compounds are depicted in the following table for the AB Sciex Trap 7500 mass spectrometer.
Peaks of PK samples were quantified using the calibration curve. The accuracy of the calibration curve was determined using QCs independently prepared on different days. […]

In the case of `O=C(CCc1ccc(O[C@@H]2O[C@H](CO)[C@H](O)[C@H](O)[C@H]2O)cc1)Nc1ccc(CCc2ccc(NC(=O)CCc3ccc(O[C@@H]4O[C@H](CO)[C@H](O)[C@H](O)[C@H]4O)cc3)cc2S(=O)(=O)O)c(S(=O)(=O)O)c1` [Compound L2], the “L2 in rat urine” value (24 h after administration, 10 mg kg^−1 i.v.) was “high levels”. For the same molecule, where the note is “male, Sprague-Dawley, iv, rat plasma, 10 mg kg^−1 i.v., N=3”, the half-life is 37 ± 12 min. Further, the AUC (male, Sprague-Dawley, iv, rat plasma, 10 mg kg^−1 i.v., read-out: area under the curve (AUC)) was found to be 19.7 ± 12.8 µM·h. Besides, the MRT (male, Sprague-Dawley, iv, rat plasma, 10 mg kg^−1 i.v., read-out: mean residence time (converted)) is 41 min. The clearance (male, Sprague-Dawley, plasma, iv, rat, 10 mg kg^−1 i.v.) came out at 9.84 ± 5 mL/min/kg. For the same molecule, for the setting “male, Sprague-Dawley, plasma, iv, rat, 10 mg kg^−1 i.v., read-out: distribution volume VD”, the Vd came out at 0.46 L/kg. Besides, the “Time plasma concentration exceeds on-target affinity” value (rat plasma, 10 mg kg^−1 i.v.) was “at least 6 h”. Moreover, the “Behavior and clinical signs after dosing” value (rat, 10 mg/kg i.v.) was “normal behavior”.
